Test results as given in the NIST ThermoML archive (doi:10.1021/je2009413).
± gives the expanded uncertainty stated by the source.

Key:
[1] = mean ionic activity coefficient (dimensionless); mn = molality of the nth substance listed, in mol/kg; conditions: 298.15 K, Liquid, Isopiestic method
[2] = osmotic coefficient (dimensionless); mn = molality of the nth substance listed, in mol/kg; conditions: 298.15 K, Liquid, isopiestic method

CC[N+](CC)(CC)C(C)(C)C [N,N,N-triethyl-2-methyl-2-propanaminium] + O
Conditions | mean ionic activity coefficient, [1] | osmotic coefficient, [2]
m1 = 0.0342 | 0.7642 ± 0.0001 | 0.899 ± 0.0097
m1 = 0.0403 | 0.7444 ± 0.0001 | 0.891 ± 0.0097
m1 = 0.0449 | 0.7306 ± 0.0001 | 0.88 ± 0.0098
m1 = 0.0576 | 0.6966 ± 0.0001 | 0.862 ± 0.0099
m1 = 0.0639 | 0.6816 ± 0.0001 | 0.853 ± 0.01
m1 = 0.0679 | 0.6725 ± 0.0001 | 0.847 ± 0.01
m1 = 0.0754 | 0.6564 ± 0.0001 | 0.841 ± 0.01
m1 = 0.088 | 0.6318 ± 0.0001 | 0.832 ± 0.01
m1 = 0.0953 | 0.6187 ± 0.0001 | 0.82 ± 0.01
m1 = 0.0994 | 0.6116 ± 0.0001 | 0.824 ± 0.01
m1 = 0.1082 | 0.5972 ± 0.0001 | 0.808 ± 0.011
m1 = 0.1645 | 0.5222 ± 0.0001 | 0.771 ± 0.011
m1 = 0.1658 | 0.5208 ± 0.0001 | 0.771 ± 0.011
m1 = 0.195 | 0.4905 ± 0.0001 | 0.75 ± 0.012
m1 = 0.2257 | 0.4629 ± 0.0001 | 0.731 ± 0.012
m1 = 0.2308 | 0.4586 ± 0.0001 | 0.723 ± 0.012
m1 = 0.271 | 0.4282 ± 0.0001 | 0.706 ± 0.013
m1 = 0.3095 | 0.4031 ± 0.0001 | 0.678 ± 0.013
m1 = 0.3407 | 0.3851 ± 0.0001 | 0.671 ± 0.013
m1 = 0.3517 | 0.3792 ± 0.0001 | 0.668 ± 0.013
m1 = 0.383 | 0.3635 ± 0.0001 | 0.651 ± 0.014
m1 = 0.4265 | 0.3439 ± 0.0001 | 0.634 ± 0.014
m1 = 0.4648 | 0.3286 ± 0.0001 | 0.62 ± 0.015
m1 = 0.5151 | 0.3106 ± 0.0001 | 0.604 ± 0.015
m1 = 0.553 | 0.2985 ± 0.0001 | 0.592 ± 0.016
m1 = 0.5917 | 0.2871 ± 0.0001 | 0.584 ± 0.016
m1 = 0.61 | 0.2821 ± 0.0001 | 0.577 ± 0.016
m1 = 0.7078 | 0.2583 ± 0.0001 | 0.554 ± 0.017
m1 = 0.7607 | 0.2473 ± 0.0001 | 0.541 ± 0.018
m1 = 0.8399 | 0.2327 ± 0.0001 | 0.524 ± 0.018
m1 = 0.8805 | 0.2259 ± 0.0001 | 0.52 ± 0.019
m1 = 0.9759 | 0.2118 ± 0.0001 | 0.509 ± 0.019
m1 = 1.08 | 0.1986 ± 0.0001 | 0.49 ± 0.02
m1 = 1.162 | 0.1896 ± 0.0001 | 0.487 ± 0.02
m1 = 1.272 | 0.1791 ± 0.0001 | 0.473 ± 0.02
m1 = 1.391 | 0.1693 ± 0.0001 | 0.459 ± 0.021
m1 = 1.56 | 0.1579 ± 0.0001 | 0.452 ± 0.021
m1 = 1.693 | 0.1504 ± 0.0001 | 0.455 ± 0.021
m1 = 1.771 | 0.1466 ± 0.0001 | 0.449 ± 0.021
m1 = 1.786 | 0.1459 ± 0.0001 | 0.454 ± 0.021
m1 = 1.83 | 0.144 ± 0.0001 | 0.45 ± 0.021
m1 = 1.924 | 0.1401 ± 0.0001 | 0.453 ± 0.021
m1 = 1.99 | 0.1377 ± 0.0001 | 0.451 ± 0.021
m1 = 2.231 | 0.1303 ± 0.0001 | 0.465 ± 0.021

CCCC[N+](CC)(CCCC)CCCC.[I-] [N,N-dibutyl-N-ethyl-1-butanaminium iodide] + O
Conditions | mean ionic activity coefficient, [1] | osmotic coefficient, [2]
m1 = 0.0378 | 0.6891 ± 0.0001 | 0.814 ± 0.011
m1 = 0.0449 | 0.6605 ± 0.0001 | 0.799 ± 0.011
m1 = 0.0501 | 0.6414 ± 0.0001 | 0.789 ± 0.011
m1 = 0.0653 | 0.5922 ± 0.0001 | 0.761 ± 0.011
m1 = 0.0727 | 0.5712 ± 0.0001 | 0.749 ± 0.012
m1 = 0.0776 | 0.5582 ± 0.0001 | 0.741 ± 0.012
m1 = 0.0868 | 0.5355 ± 0.0001 | 0.731 ± 0.012
m1 = 0.1035 | 0.499 ± 0.0001 | 0.707 ± 0.013
m1 = 0.1121 | 0.4824 ± 0.0001 | 0.698 ± 0.013
m1 = 0.1191 | 0.4695 ± 0.0001 | 0.688 ± 0.013
m1 = 0.1288 | 0.4528 ± 0.0001 | 0.679 ± 0.013
m1 = 0.2082 | 0.3515 ± 0.0001 | 0.614 ± 0.015
m1 = 0.2083 | 0.3515 ± 0.0001 | 0.609 ± 0.015
m1 = 0.2503 | 0.3142 ± 0.0001 | 0.584 ± 0.016
m1 = 0.292 | 0.2842 ± 0.0001 | 0.565 ± 0.017
m1 = 0.3027 | 0.2774 ± 0.0001 | 0.551 ± 0.017
m1 = 0.3652 | 0.2431 ± 0.0001 | 0.524 ± 0.018
m1 = 0.4254 | 0.217 ± 0.0001 | 0.493 ± 0.02
m1 = 0.4783 | 0.1981 ± 0.0001 | 0.478 ± 0.02
m1 = 0.498 | 0.1919 ± 0.0001 | 0.471 ± 0.021
m1 = 0.547 | 0.1778 ± 0.0001 | 0.456 ± 0.021
m1 = 0.6197 | 0.1601 ± 0.0001 | 0.436 ± 0.022
m1 = 0.6878 | 0.1461 ± 0.0001 | 0.419 ± 0.022
m1 = 0.7684 | 0.1322 ± 0.0001 | 0.405 ± 0.023
m1 = 0.8453 | 0.1209 ± 0.0001 | 0.388 ± 0.024
m1 = 0.908 | 0.1127 ± 0.0001 | 0.381 ± 0.024
m1 = 0.9478 | 0.108 ± 0.0001 | 0.371 ± 0.024
m1 = 1.128 | 0.09 ± 0.0001 | 0.347 ± 0.025
m1 = 1.231 | 0.0816 ± 0.0001 | 0.335 ± 0.026
m1 = 1.337 | 0.0739 ± 0.0001 | 0.33 ± 0.026
m1 = 1.405 | 0.0695 ± 0.0001 | 0.326 ± 0.026
m1 = 1.548 | 0.0611 ± 0.0001 | 0.321 ± 0.026
m1 = 1.652 | 0.0557 ± 0.0001 | 0.321 ± 0.026
m1 = 1.751 | 0.051 ± 0.0001 | 0.323 ± 0.026
m1 = 1.825 | 0.0478 ± 0.0001 | 0.33 ± 0.026
m1 = 1.91 | 0.0443 ± 0.0001 | 0.334 ± 0.026
m1 = 2.042 | 0.0393 ± 0.0001 | 0.345 ± 0.025
m1 = 2.173 | 0.0349 ± 0.0001 | 0.354 ± 0.025
m1 = 2.216 | 0.0335 ± 0.0001 | 0.359 ± 0.025
m1 = 2.239 | 0.0328 ± 0.0001 | 0.362 ± 0.025
m1 = 2.276 | 0.0317 ± 0.0001 | 0.362 ± 0.025
m1 = 2.339 | 0.0299 ± 0.0001 | 0.372 ± 0.024
m1 = 2.38 | 0.0288 ± 0.0001 | 0.377 ± 0.024
m1 = 2.583 | 0.0236 ± 0.0001 | 0.402 ± 0.023
